Measured values: patent publication US8450286B2, “Method for treating cancers having high glucose requirements employing an SGLT2 inhibitor and compositions thereof” (Bristol-Myers Squibb Company, priority 2008, dated 2013)

Experiments:
healthy subjects = healthy subjects taking 5, 20, 50 or 100 mg; versus known SGLT2 inhibitor GSK 869,682 (50, 100, 200 or 500 mg); FIG. 1
Protocol: The panel at the top of FIG. 1 is from a presentation by GSK in an analyst meeting, showing the amount of glucose excretion/day in healthy subjects taking 50, 100, 200 or 500 mg of GSK 869,682. The panel at the bottom is from study MB-102001, showing the amount of glucose excretion/day in healthy subjects taking 5, 20, 50 or 100 mg of compound Ia.

[1] = test system: subjects with type 2 diabetes; settings: 14-day multiple ascending dose, compared to placebo, FIG. 2
Description: Results from the 24-hour glucose excretion are shown in FIG. 2 for all subjects in the MB-102003 study. The mean urine glucose is in the darker lines.

For `CCOc1ccc(Cc2cc([C@@H]3O[C@H](CO)[C@@H](O)[C@H](O)[C@H]3O)ccc2Cl)cc1` [compound Ia], the “glucosuric effect: loss of calories in the urine (glucose excretion/day)” value (healthy subjects) was “significant loss of calories in the urine” and the “24-hour urine glucose excretion” value [1] was “higher urine glucose excretion”.
